According to patent US8029793B2, “Methods for inhibiting cell proliferation” (Chugai Seiyaku Kabushiki Kaisha, priority 2000, dated 2011):

Tests used:
[1] = system: KTA-2 cell line; experiment: PTHrP stimulation test (3H-TdR incorporation); format: cell-based, human; conditions: PTHrP(34-53) 0, 1, 10, 100 ng/mL, trypsin treatment at 24 hours and at 48 hours after addition
Method: (§1) Briefly, anaplastic thyroid cell lines TTA-1 (hatched bars), TTA-2 (solid bars), and KTA-2 (unfilled bars) were seeded at 1×10^4 cells per well in a 96-well plate. Cells were incubated for two days in complete medium and then shifted to serum-free medium for day 3. Cells were treated with PTHrP (34-53) at 0, 1, 10, and 100 ng/mL and treated with trypsin 24 (top panel) and 48 (bottom panel) hours later. Cells were labeled with ^3H-TdR for 6 hours (0.25 μCi/well) and incorporation of label was measured by liquid scintillation counting. Measurements were performed in triplicate and average results are presented.
(§2) After treating TTA-1, TTA-2, and KTA-2 with trypsin, the number of viable cells not stained with trypan blue was counted with a hemocytometer. Subsequently, 1×10^4 cells were inoculated on a 96-well multi-plate (Falcon), and then cultured in a CO2 incubator at 37° C. for 2 days. On day 2 after culturing, the culture solution was replaced by a serum-free medium, and then culturing was performed for 1 day. PTHrP(34-53) (Calbiochem) at concentrations of 0 (PTHrP-free), 1, 10 and 100 ng/mL were added, followed by treatment with trypsin 24 and 48 hours later.
(§3) The cells were labeled with ^3H-TdR for 6 hours (0.25 μCi/well), collected, and then incorporation of ^3H-TdR was measured using a liquid scintillation counter. […]

[2] = system: TTA-1 cell line; experiment: PTHrP stimulation test (3H-TdR incorporation); format: cell-based, human; conditions: PTHrP(34-53) 0, 1, 10, 100 ng/mL, trypsin treatment at 24 hours and at 48 hours after addition
Method: as §1, §2, §3

PTHrP(34-53): peptide fragment consisting the sequence of amino acids 34 to 53 of parathyroid hormone related peptide (Calbiochem) (AEIRATSEVSPNSKPSPNTK; listed as Homo sapiens)
cell proliferation (incorporation of 3H-TdR) [1]: proliferate depending on the concentration of PTHrP
cell proliferation (incorporation of 3H-TdR) [2]: proliferate depending on the concentration of PTHrP
